For data set [1], the system named is recombinant NL4-3 virus (nef section replaced with Renilla luciferase gene) in MT-2 cells. The experiment in a line: HIV cell culture assay (antiviral activity, luciferase readout). The class given is cell-based. The following applies: Renilla, NL43, MT-2 cells infected for 4-5 days with recombinant NL4-3 Renilla luciferase virus, serial dilutions of compound. An outline of the steps:
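EC50 was derived by median-effect curve fitting of luciferase activity. The signal comes from MT-2 cells infected for 4–5 days with 293T-produced NL4-3 reporter virus, nef partly replaced by Renilla luciferase, in the presence of serially diluted compound.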

A short description of data set [2]: Compound cytotoxicity, XTT-based colorimetric assay. The data set is classed as cell-based. The following applies: human, uninfected MT2 cells, day 4, XTT. An outline of the steps: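 Run under the antiviral-assay protocol but without virus. Viability was read on day 4 and CC50 values were derived from the readout.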
On the technique in general: Tetrazolium dyes change colour on reduction, which living cells bring about.

pEC50: −log10 of the molar value.

Take `Cn1nc(NS(C)(=O)=O)c2c(Cl)ccc(-n3c([C@H](Cc4cc(F)cc(F)c4)NC(=O)Cn4nc(C(F)F)c5c4C(F)(F)[C@@H]4C[C@H]54)nc4cc(-c5ccccc5-c5ccccc5)ccc4c3=O)c21` (atropisomer, axis not shown; (aR)) [Example 9, N-((S)-1-(7-([1,1′-biphenyl]-2-yl)-3-(4-chloro-1-methyl-3-(methylsulfonamido)-1H-indazol-7-yl)-4-oxo-3,4-dihydroquinazolin-2-yl)-2-(3,5-difluorophenyl)ethyl)-2-((3bS,4aR)-3-(difluoromethyl)-5,5-difluoro-3b,4,4a,5-tetrahydro-1H-cyclopropa[3,4]cyclopenta[1,2-c]pyrazol-1-yl)acetamide]: in data set [1], the pEC50 is 8.34. In addition, the half-maximal cytotoxic concentration (CC50) at 4 day in data set [2] is more than 1000 nM.
The corresponding values for `COc1cccc(-c2ccc3c(=O)n(-c4ccc(Cl)c5c(NS(C)(=O)=O)nn(C)c45)c([C@H](Cc4cc(F)cc(F)c4)NC(=O)Cn4nc(C(F)F)c5c4C(F)(F)[C@@H]4C[C@H]54)nc3c2)n1` (atropisomer, axis not shown; (aR)) [Example 46, N-((S)-1-(3-(4-chloro-1-methyl-3-(methylsulfonamido)-1H-indazol-7-yl)-7-(6-methoxypyridin-2-yl)-4-oxo-3,4-dihydroquinazolin-2-yl)-2-(3,5-difluorophenyl)ethyl)-2-((3bS,4aR)-3-(difluoromethyl)-5,5-difluoro-3b,4,4a,5-tetrahydro-1H-cyclopropa[3,4]cyclopenta[1,2-c]pyrazol-1-yl)acetamide] are 9.25 and more than 1000 nM.
In the case of `Cn1nc(NS(C)(=O)=O)c2c(Cl)ccc(-n3c([C@H](Cc4cc(F)cc(F)c4)NC(=O)Cn4nc(C(F)F)c5c4C(F)(F)[C@@H]4C[C@H]54)nc4cc(-c5cccc(S(C)(=O)=O)c5)ccc4c3=O)c21` (atropisomer, axis not shown; (aR)) [Example 54, N-((S)-1-(3-(4-chloro-1-methyl-3-(methylsulfonamido)-1H-indazol-7-yl)-7-(3-(methylsulfonyl)phenyl)-4-oxo-3,4-dihydroquinazolin-2-yl)-2-(3,5-difluorophenyl)ethyl)-2-((3bS,4aR)-3-(difluoromethyl)-5,5-difluoro-3b,4,4a,5-tetrahydro-1H-cyclopropa[3,4]cyclopenta[1,2-c]pyrazol-1-yl)acetamide], the pEC50 in data set [1] is 9.68. In data set [2], this compound returned a CC50 at 4 day of more than 1000 nM.
`Cn1nc(NS(C)(=O)=O)c2c(Cl)ccc(-n3c([C@H](Cc4cc(F)cc(F)c4)NC(=O)Cn4nc(C(F)F)c5c4C(F)(F)[C@@H]4C[C@H]54)nc4cc(-c5cccc(C(=O)O)c5)ccc4c3=O)c21` (atropisomer, axis not shown; (aR)) [Example 17, 3-(3-(4-chloro-1-methyl-3-(methylsulfonamido)-1H-indazol-7-yl)-2-((S)-1-(2-((3bS,4aR)-3-(difluoromethyl)-5,5-difluoro-3b,4,4a,5-tetrahydro-1H-cyclopropa[3,4]cyclopenta[1,2-c]pyrazol-1-yl)acetamido)-2-(3,5-difluorophenyl)ethyl)-4-oxo-3,4-dihydroquinazolin-7-yl)benzoic acid]: the pEC50 in data set [1] is 8.01. The CC50 at 4 day in data set [2] is more than 1000 nM.
Consider `Cc1cccc(C)c1-c1ccc2c(=O)n(-c3ccc(S(=O)(=O)N4CCOCC4)cc3)c([C@H](Cc3cc(F)cc(F)c3)NC(=O)Cn3nc(C(F)F)c4c3C(F)(F)[C@@H]3C[C@H]43)nc2c1` [Example 77, 2-((3bS,4aR)-3-(difluoromethyl)-5,5-difluoro-3b,4,4a,5-tetrahydro-1H-cyclopropa[3,4]cyclopenta[1,2-c]pyrazol-1-yl)-N-((S)-2-(3,5-difluorophenyl)-1-(7-(2,6-dimethylphenyl)-3-(4-(morpholinosulfonyl)phenyl)-4-oxo-3,4-dihydroquinazolin-2-yl)ethyl)acetamide], for which the pEC50 in data set [1] was 8.38. The compound further had a CC50 at 4 day in data set [2] of more than 1000 nM.
Taken in the same sequence, the figures for `O=C(Cn1nc(C(F)F)c2c1C(F)(F)[C@@H]1C[C@H]21)N[C@@H](Cc1cc(F)cc(F)c1)c1nc2cc(-c3cc(F)ccc3F)ccc2c(=O)n1-c1ccc(S(=O)(=O)N2CCOCC2)cc1` [Example 29, 2-((3bS,4aR)-3-(difluoromethyl)-5,5-difluoro-3b,4,4a,5-tetrahydro-1H-cyclopropa[3,4]cyclopenta[1,2-c]pyrazol-1-yl)-N-((S)-2-(3,5-difluorophenyl)-1-(7-(2,5-difluorophenyl)-3-(4-(morpholinosulfonyl)phenyl)-4-oxo-3,4-dihydroquinazolin-2-yl)ethyl)acetamide] were 8.54 and more than 1000 nM.
The corresponding values for `Cn1nc(NS(C)(=O)=O)c2c(Cl)ccc(-n3c([C@H](Cc4cc(F)cc(F)c4)NC(=O)Cn4nc(C(F)F)c5c4C(F)(F)[C@@H]4C[C@H]54)nc4cc(-c5cccc(F)c5F)ccc4c3=O)c21` (atropisomer, axis not shown; (aR)) [Example 68, N-((S)-1-(3-(4-chloro-1-methyl-3-(methylsulfonamido)-1H-indazol-7-yl)-7-(2,3-difluorophenyl)-4-oxo-3,4-dihydroquinazolin-2-yl)-2-(3,5-difluorophenyl)ethyl)-2-((3bS,4aR)-3-(difluoromethyl)-5,5-difluoro-3b,4,4a,5-tetrahydro-1H-cyclopropa[3,4]cyclopenta[1,2-c]pyrazol-1-yl)acetamide] are 9.20 and more than 1000 nM.
The corresponding values for `Cn1nc(NS(C)(=O)=O)c2c(Cl)ccc(-n3c([C@H](Cc4cc(F)cc(F)c4)NC(=O)Cn4nc(C(F)F)cc4C(F)F)nc4cc(-c5ccccc5F)ccc4c3=O)c21` [Example 154, (S)-2-(3,5-bis(difluoromethyl)-1H-pyrazol-1-yl)-N-(1-(3-(4-chloro-1-methyl-3-(methylsulfonamido)-1H-indazol-7-yl)-7-(2-fluorophenyl)-4-oxo-3,4-dihydroquinazolin-2-yl)-2-(3,5-difluorophenyl)ethyl)acetamide] are 8.32 and more than 1000 nM.
On to `Cc1cc(Cl)ccc1-c1ccc2c(=O)n(-c3ccc(Cl)c4c(NS(C)(=O)=O)nn(C)c34)c([C@H](Cc3cc(F)cc(F)c3)NC(=O)Cn3nc(C(F)F)c4c3C(F)(F)[C@@H]3C[C@H]43)nc2c1` (atropisomer, axis not shown; (aR)) [Example 90], for which, in data set [1], the pEC50 was 8.24. In addition, the CC50 at 4 day in data set [2] is more than 1000 nM.
The corresponding values for `O=C(Cn1ccc(C2CC2)n1)N[C@@H](Cc1cc(F)cc(F)c1)c1nc2cc(-c3cccc(-c4ccccc4)c3)ccc2c(=O)n1-c1ccc(S(=O)(=O)N2CCOCC2)cc1` [Example 147, (S)-N-(1-(7-([1,1′-biphenyl]-3-yl)-3-(4-(morpholinosulfonyl)phenyl)-4-oxo-3,4-dihydroquinazolin-2-yl)-2-(3,5-difluorophenyl)ethyl)-2-(3-cyclopropyl-1H-pyrazol-1-yl)acetamide] are 6.92 and more than 1000 nM.
The corresponding values for `Cc1cc(C)nc(-c2ccc3c(=O)n(-c4ccc(Cl)c5c(NS(=O)(=O)C6CC6)nn(CC(F)F)c45)c([C@H](Cc4cc(F)cc(F)c4)NC(=O)Cn4nc(C(F)F)c5c4C(F)(F)[C@@H]4C[C@H]54)nc3c2)n1` (atropisomer, axis not shown; (aR)) [Example 129, N-((S)-1-(3-(4-chloro-3-(cyclopropanesulfonamido)-1-(2,2-difluoroethyl)-1H-indazol-7-yl)-7-(4,6-dimethylpyrimidin-2-yl)-4-oxo-3,4-dihydroquinazolin-2-yl)-2-(3,5-difluorophenyl)ethyl)-2-((3bS,4aR)-3-(difluoromethyl)-5,5-difluoro-3b,4,4a,5-tetrahydro-1H-cyclopropa[3,4]cyclopenta[1,2-c]pyrazol-1-yl)acetamide] are 10.02 and more than 500 nM.
Taken in the same sequence, the figures for `Cc1c(-c2ccc3c(=O)n(-c4ccc(Cl)c5c(NS(C)(=O)=O)nn(C)c45)c([C@H](Cc4cc(F)cc(F)c4)NC(=O)Cn4nc(C(F)F)c5c4C(F)(F)[C@@H]4CC54)nc3c2)cc(F)c2c1CCCO2` (stereo in doubt) [Example 53, N-((S)-1-(3-(4-chloro-1-methyl-3-(methylsulfonamido)-1H-indazol-7-yl)-7-(8-fluoro-5-methylchroman-6-yl)-4-oxo-3,4-dihydroquinazolin-2-yl)-2-(3,5-difluorophenyl)ethyl)-2-((3bS,4aR)-3-(difluoromethyl)-5,5-difluoro-3b,4,4a,5-tetrahydro-1H-cyclopropa[3,4]cyclopenta[1,2-c]pyrazol-1-yl)acetamide] were 8.68 and more than 1000 nM.
In the case of `Cc1cccc(-c2ccc3c(=O)n(-c4ccc(Cl)c5c(NS(C)(=O)=O)nn(CC(F)(F)F)c45)c([C@H](Cc4cc(F)cc(F)c4)NC(=O)Cn4nc(C(F)F)c5c4C(F)(F)[C@@H]4C[C@H]54)nc3c2)n1` [Example 161, N-((S)-1-(3-(4-chloro-3-(methylsulfonamido)-1-(2,2,2-trifluoroethyl)-1H-indazol-7-yl)-7-(6-methylpyridin-2-yl)-4-oxo-3,4-dihydroquinazolin-2-yl)-2-(3,5-difluorophenyl)ethyl)-2-((3bS,4aR)-3-(difluoromethyl)-5,5-difluoro-3b,4,4a,5-tetrahydro-1H-cyclopropa[3,4]cyclopenta[1,2-c]pyrazol-1-yl)acetamide], in data set [1], the pEC50 was 9.92. The CC50 at 4 day in data set [2] is more than 500 nM.

In general, pEC50 refers to the EC50 on a negative log10 scale, so that one unit is a factor of ten. The CC50 is the concentration giving 50% cytotoxicity.
